Assay type in all cases: biochemical
One test addresses T1, HCMV polymerase (Human cytomegalovirus, UniProt P08546).
T1 construct: made in house; host or cells: recombinant baculovirus-infected SF-9 cells
The experiment in a line: HCMV polymerase scintillation proximity assay (SPA), modified version. Conditions: CMV polymerase; Table 1; modified assay with 4.5 mM DTT, compounds in 100% DMSO; read-out: Antiviral Selective Polymerase IC50 Values, CMV. Summed up:
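SPA measuring 3H-dTTP (90 nM) incorporation on 6 nM biotinylated poly(dA)-oligo(dT) by SF-9-expressed enzyme, pH 7.5 HEPES/KCl/MgCl2/BSA buffer with or without 2 mM CHAPS. Run at 25° C or 37° C, stopped with EDTA while linear (HCMV 30 min); IC50 from linear regression. Modified format adds 4.5 mM DTT, compounds diluted in 100% DMSO.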
Background: Scintillation proximity formats need no separation of bound from free tracer.

A further test concerns the target HSV polymerase (Human herpesvirus 1, UniProt P04293). The experiment in a line: HSV polymerase assay (procedure similar to the HCMV polymerase SPA). Conditions: Table 1, read-out: Antiviral Selective Polymerase IC50 Values, HSV. The method, then: (§1) The HCMV polymerase assay is performed using a scintillation proximity assay (SPA) as described in several references, such as N. D. Cook, et al., Pharmaceutical Manufacturing International, pages 49-53 (1992); K. Takeuchi, Laboratory Practice, September issue (1992); U.S. Pat. No. 4,568,649 (1986); which are incorporated by reference herein. Reactions are performed in 96-well plates. The assay is conducted in 100 μl volume with 5.4 mM HEPES (pH 7.5), 11.7 mM KCl, 4.5 mM MgCl2, 0.36 mg/ml BSA, and 90 nM ^3 H-dTTP. Assays are run with and without CHAPS, (3-[(3-Cholamidopropyl)-dimethylammonio]-1-propane-sulfonate) at a final concentration of 2 mM. HCMV polymerase is diluted in enzyme dilution buffer containing 50% glycerol, 250 mM NaCl, 10 mM HEPES (pH 7.5), 100 μg/ml BSA, and 0.01% sodium azide. The HCMV polymerase, which is expressed in recombinant baculovirus-infected SF-9 cells and purified according to literature procedures, is added at 10% (or 10 μl) of the final reaction volume, i.e., 100 μl. Compounds are diluted in 50% DMSO and 10 μl are added to each well. Control wells contain an equivalent concentration of DMSO. Unless noted otherwise, reactions are initiated via the addition of 6 nM biotinylated poly(dA)-oligo(dT) template/primer to reaction mixtures containing the enzyme, substrate, and compounds of interest. Plates are incubated in a 25° C. or 37° C. H2 O bath and terminated via the addition of 40 μl/reaction of 0.5 M EDTA (pH 8) per well. Reactions are terminated within the time-frame during which substrate incorporation is linear and varied depending upon the enzyme and conditions used, i.e., 30 min. for HCMV polymerase. Ten μl of streptavidin-SPA beads (20 mg/ml in PBS/10% glycerol) are added following termination of the reaction. Plates are incubated 10 min. at 37° C., then equilibrated to room temperature, and counted on a Packard Topcount. Linear regressions are performed and IC50 's are calculated using computer software.
(§2) A modified version of the above HCMV polymerase assay is performed as described above, but with the following changes: Compounds are diluted in 100% DMSO until final dilution into assay buffer. In the previous assay, compounds are diluted in 50% DMSO. 4.5 mM dithiotherotol (DTT) is added to the polymerase buffer. […] Other viral polymerase assays are performed using procedures similar to those described above.

In the next test the target is VZV polymerase (Varicella-zoster virus, UniProt P09252). The experiment in a line: VZV polymerase assay (procedure similar to the HCMV polymerase SPA). The conditions noted are these: Table 1, read-out: Antiviral Selective Polymerase IC50 Values, VZV. How it is done:
as §1, §2

Molecules are shown by their SMILES.

Chain of HSV polymerase (P04293 whole entry): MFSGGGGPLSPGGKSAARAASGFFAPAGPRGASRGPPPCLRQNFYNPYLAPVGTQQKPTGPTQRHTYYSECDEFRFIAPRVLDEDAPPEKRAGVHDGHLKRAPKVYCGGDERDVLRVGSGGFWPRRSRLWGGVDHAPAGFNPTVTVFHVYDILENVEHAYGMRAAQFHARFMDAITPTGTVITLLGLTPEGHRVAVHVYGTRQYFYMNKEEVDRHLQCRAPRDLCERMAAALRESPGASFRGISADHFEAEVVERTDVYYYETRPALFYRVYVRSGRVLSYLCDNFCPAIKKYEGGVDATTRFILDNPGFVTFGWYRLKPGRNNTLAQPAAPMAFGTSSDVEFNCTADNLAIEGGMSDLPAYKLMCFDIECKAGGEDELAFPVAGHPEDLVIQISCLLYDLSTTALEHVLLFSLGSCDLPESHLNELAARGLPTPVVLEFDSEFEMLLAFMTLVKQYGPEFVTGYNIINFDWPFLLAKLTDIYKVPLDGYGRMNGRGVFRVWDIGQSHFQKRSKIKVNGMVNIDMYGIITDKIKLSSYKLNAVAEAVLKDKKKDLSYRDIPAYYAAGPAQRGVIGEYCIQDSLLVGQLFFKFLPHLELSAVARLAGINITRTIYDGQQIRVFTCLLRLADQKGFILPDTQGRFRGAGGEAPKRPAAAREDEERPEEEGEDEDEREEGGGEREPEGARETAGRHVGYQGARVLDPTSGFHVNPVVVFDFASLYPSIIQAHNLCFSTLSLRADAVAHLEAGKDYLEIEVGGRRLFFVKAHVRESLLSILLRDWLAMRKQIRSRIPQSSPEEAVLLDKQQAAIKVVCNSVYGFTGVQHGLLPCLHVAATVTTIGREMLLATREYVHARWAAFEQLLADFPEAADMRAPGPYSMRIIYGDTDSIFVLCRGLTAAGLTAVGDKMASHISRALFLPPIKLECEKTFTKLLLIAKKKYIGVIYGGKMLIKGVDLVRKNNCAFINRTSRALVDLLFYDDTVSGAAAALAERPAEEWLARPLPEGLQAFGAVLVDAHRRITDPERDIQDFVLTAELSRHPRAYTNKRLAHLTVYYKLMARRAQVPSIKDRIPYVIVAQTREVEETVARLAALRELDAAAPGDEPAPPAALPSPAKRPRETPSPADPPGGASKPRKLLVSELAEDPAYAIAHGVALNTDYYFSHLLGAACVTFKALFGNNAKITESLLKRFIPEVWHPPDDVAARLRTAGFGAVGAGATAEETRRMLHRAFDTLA
Chain of VZV polymerase (P09252 whole entry): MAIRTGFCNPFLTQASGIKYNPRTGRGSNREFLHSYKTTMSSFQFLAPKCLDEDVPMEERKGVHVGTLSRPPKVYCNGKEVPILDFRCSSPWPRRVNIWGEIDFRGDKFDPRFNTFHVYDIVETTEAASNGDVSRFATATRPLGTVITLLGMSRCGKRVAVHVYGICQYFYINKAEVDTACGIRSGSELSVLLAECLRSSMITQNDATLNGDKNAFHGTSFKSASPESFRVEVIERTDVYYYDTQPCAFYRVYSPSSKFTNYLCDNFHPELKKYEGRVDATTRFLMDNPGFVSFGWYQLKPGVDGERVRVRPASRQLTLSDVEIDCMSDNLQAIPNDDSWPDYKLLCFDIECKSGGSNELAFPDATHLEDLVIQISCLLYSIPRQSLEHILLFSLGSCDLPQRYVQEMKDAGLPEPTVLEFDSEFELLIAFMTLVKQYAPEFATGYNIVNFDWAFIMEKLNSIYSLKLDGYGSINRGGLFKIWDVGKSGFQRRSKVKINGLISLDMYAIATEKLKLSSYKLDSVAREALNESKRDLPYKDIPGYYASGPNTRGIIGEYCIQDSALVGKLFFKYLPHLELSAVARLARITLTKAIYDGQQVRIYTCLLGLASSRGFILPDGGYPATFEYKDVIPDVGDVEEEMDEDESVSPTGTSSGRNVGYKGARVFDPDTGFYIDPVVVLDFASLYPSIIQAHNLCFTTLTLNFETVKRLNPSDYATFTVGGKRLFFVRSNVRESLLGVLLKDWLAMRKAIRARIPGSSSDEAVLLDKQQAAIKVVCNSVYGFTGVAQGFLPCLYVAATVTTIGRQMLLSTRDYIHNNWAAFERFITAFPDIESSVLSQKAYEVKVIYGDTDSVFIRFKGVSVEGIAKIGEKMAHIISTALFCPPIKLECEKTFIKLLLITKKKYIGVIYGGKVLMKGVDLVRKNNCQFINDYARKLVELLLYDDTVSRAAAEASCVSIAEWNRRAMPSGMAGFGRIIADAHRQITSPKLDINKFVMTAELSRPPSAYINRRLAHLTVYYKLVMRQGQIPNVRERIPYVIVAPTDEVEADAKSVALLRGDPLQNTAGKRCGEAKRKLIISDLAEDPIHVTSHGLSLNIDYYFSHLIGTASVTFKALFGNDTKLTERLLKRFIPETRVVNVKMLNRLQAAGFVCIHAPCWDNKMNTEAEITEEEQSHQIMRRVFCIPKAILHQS
T1 sequence (P08546 whole entry): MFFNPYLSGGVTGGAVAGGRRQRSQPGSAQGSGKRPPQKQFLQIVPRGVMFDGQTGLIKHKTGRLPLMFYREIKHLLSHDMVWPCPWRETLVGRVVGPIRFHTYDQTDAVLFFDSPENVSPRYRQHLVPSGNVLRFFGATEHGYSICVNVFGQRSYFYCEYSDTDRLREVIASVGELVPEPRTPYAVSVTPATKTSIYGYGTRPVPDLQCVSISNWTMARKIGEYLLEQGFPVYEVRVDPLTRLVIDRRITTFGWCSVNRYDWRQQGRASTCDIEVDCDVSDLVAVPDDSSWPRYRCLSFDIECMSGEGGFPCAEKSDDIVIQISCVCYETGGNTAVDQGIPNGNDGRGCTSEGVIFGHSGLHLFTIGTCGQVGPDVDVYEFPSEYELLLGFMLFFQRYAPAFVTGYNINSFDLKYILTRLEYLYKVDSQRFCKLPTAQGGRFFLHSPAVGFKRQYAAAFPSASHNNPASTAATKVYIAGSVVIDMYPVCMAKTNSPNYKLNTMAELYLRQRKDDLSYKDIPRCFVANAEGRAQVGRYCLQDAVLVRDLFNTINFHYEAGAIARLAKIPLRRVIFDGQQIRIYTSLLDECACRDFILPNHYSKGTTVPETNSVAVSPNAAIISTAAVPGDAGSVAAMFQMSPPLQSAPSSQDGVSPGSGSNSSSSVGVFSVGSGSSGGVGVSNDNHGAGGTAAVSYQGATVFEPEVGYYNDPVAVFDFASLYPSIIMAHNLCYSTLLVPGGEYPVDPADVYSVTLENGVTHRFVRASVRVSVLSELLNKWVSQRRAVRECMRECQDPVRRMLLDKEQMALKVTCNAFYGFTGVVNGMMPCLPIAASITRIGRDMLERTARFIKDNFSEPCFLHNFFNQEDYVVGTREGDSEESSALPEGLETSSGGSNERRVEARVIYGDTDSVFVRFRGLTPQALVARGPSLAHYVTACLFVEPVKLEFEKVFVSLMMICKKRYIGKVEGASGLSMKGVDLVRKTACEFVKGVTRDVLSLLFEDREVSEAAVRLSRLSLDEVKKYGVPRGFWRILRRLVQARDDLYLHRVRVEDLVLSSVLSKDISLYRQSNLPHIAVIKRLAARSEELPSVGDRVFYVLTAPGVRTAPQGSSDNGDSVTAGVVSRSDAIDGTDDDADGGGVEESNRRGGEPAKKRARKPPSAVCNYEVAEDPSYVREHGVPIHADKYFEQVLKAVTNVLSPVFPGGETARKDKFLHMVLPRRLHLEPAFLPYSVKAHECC

`COCC#Cc1cc(OC)c2ncc(C(=O)NCc3ccc(Cl)cc3)c(O)c2c1` [Example 119, N-(4-Chlorobenzyl)-4-hydroxy-8-methoxy-6-(3-methoxy-1-propynyl)-3-quinolinecarboxamide]: the half-inhibitory concentration (IC50) (commonly the point on the concentration scale where inhibition reaches its midpoint) at HCMV polymerase came to 1500 nM; at HSV polymerase it was 730 nM; on VZV polymerase, 570 nM.

In the case of `N#CCCc1cc(F)c2ncc(C(=O)NCc3ccc(Cl)cc3)c(O)c2c1` [Example 138, N-(4-Chlorobenzyl)-6-(2-cyanoethyl)-8-fluoro-4-hydroxy-3-quinolinecarboxamide], the concentration for half-maximal inhibition (IC50) at HCMV polymerase was found to be 4700 nM; on HSV polymerase, 3500 nM; on VZV polymerase, 2000 nM.

Regarding `O=C(NCc1ccc(Cl)cc1)c1cnc2ccc(OCCO)cc2c1O` [Example 179, N-(4-Chlorobenzyl)-4-hydroxy-6-(2-hydroxyethoxy)-3-quinolinecarboxamide], the 50% inhibitory concentration (IC50) on HCMV polymerase turned out to be 1800 nM; at HSV polymerase, 1400 nM; at VZV polymerase it was 660 nM.

On to `CC(=O)Nc1ccc2ncc(C(=O)NCc3ccc(Cl)cc3)c(O)c2c1` [Example 31, 6-(Acetylamino)-N-[(4-chlorophenyl)methyl]-4-hydroxy-3-quinolinecarboxamide], for which the half-maximal inhibitory concentration (IC50) on HCMV polymerase was 26200 nM; on HSV polymerase, 81500 nM; at VZV polymerase, 26000 nM.

Take `O=C(NCc1ccc(Cl)cc1)c1cnc2c(F)c(F)c(F)cc2c1O` [Example 15, N-[(4-Chlorophenyl)methyl]-6,7,8-trifluoro-4-hydroxy-3-quinolinecarboxamide]: the values for the IC50 on HCMV polymerase, at HSV polymerase and on VZV polymerase were 20800 nM, 22000 nM and 13100 nM, respectively.

For the molecule `O=C(NCc1ccc(Cl)cc1)c1cnc2cc(F)ccc2c1O` [Example 9, N-[(4-Chlorophenyl)methyl]-7-fluoro-4-hydroxy-3-quinolinecarboxamide], the concentration for half-maximal inhibition (IC50) is below 2300 nM at HCMV polymerase, below 2300 nM at HSV polymerase and 2500 nM on VZV polymerase.

Regarding `O=C(NCc1ccc(Cl)cc1)c1cnc2ccc(CN3CCOCC3)cc2c1O` [Example 191, N-(4-Chlorobenzyl)-4-hydroxy-6-(4-morpholinylmethyl)-3-quinolinecarboxamide], the half-inhibitory concentration (IC50) at HCMV polymerase amounted to 500 nM; on HSV polymerase it was 630 nM; on VZV polymerase, 640 nM.

For the molecule `O=C(NCc1ccc(Cl)cc1)c1cnc2cc(CCCCO)ccc2c1O` [Example 140, N-(4-Chlorobenzyl)-4-hydroxy-7-(4-hydroxybutyl)-3-quinolinecarboxamide], the results for the IC50 at HCMV polymerase, at HSV polymerase and on VZV polymerase were 1400 nM, 1700 nM and 1000 nM, respectively.

For `CN(C)CC(=O)OCCCc1cc(F)c2ncc(C(=O)NCc3ccc(Cl)cc3)c(O)c2c1` [Example 148, 3-(3-{[(4-Chlorobenzyl)amino]carbonyl}-8-fluoro-4-hydroxy-6-quinolinyl)propyl 2-(dimethylamino)acetate], the figures for the concentration for half-maximal inhibition (IC50) on HCMV polymerase, on HSV polymerase and on VZV polymerase were 2400 nM, 1400 nM and 1000 nM, respectively.

Consider `O=C(NCc1ccc(Cl)cc1)c1cnc2c(F)cc(C#CCO)cc2c1O` [Example 53, N-[(4-Chlorophenyl)methyl]-8-fluoro-4-hydroxy-6-(3-hydroxy-1-propynyl)-3-quinolinecarboxamide], for which the figures for the IC50 on HCMV polymerase, at HSV polymerase and on VZV polymerase were below 780 nM, 640 nM and 390 nM, respectively.

`CC(=O)Nc1ccc2c(O)c(C(=O)NCc3ccc(Cl)cc3)cnc2c1` [Example 25, 7-(Acetylamino)-N-[(4-chlorophenyl)methyl]-4-hydroxy-3-quinolinecarboxamide]: the IC50 on HCMV polymerase was found to be 13500 nM; on HSV polymerase it was 18500 nM; on VZV polymerase, 8400 nM.

Regarding `CC(C)(CCO)c1ccc2ncc(C(=O)NCc3ccc(Cl)cc3)c(O)c2c1` [Example 125, N-(4-Chlorobenzyl)-4-hydroxy-6-(3-hydroxy-1,1-dimethylpropyl)-3-quinolinecarboxamide], the half-maximal inhibitory concentration (IC50) at HCMV polymerase amounted to 870 nM; at HSV polymerase, 2500 nM; on VZV polymerase, 1700 nM.

On to `Nc1ccc2c(O)c(C(=O)NCc3ccc(Cl)cc3)cnc2c1` [Example 2, 7-Amino-N-[(4-chlorophenyl)methyl]-4-hydroxy-3-quinolinecarboxamide], for which the IC50 was 5200 nM on HCMV polymerase, 3500 nM on HSV polymerase and 600 nM on VZV polymerase.

Take `O=C(NCc1ccc(Cl)cc1)c1cnc2ccc(C#CCO)cc2c1O` [Example 134, N-(4-Chlorobenzyl)-4-hydroxy-6-(3-hydroxy-1-propynyl)-3-quinolinecarboxamide]: the 50% inhibitory concentration (IC50) was 900 nM on HCMV polymerase, 720 nM on HSV polymerase and 190 nM on VZV polymerase.

For the molecule `O=C(NCc1ccc(Cl)cc1)c1cnc2c(F)cccc2c1O` [Example 12, N-[(4-Chlorophenyl)methyl]-8-fluoro-4-hydroxy-3-quinoline-carboxamide], the results for the IC50 at HCMV polymerase, at HSV polymerase and at VZV polymerase were 1400 nM, 3400 nM and below 3100 nM, respectively.

Regarding `CS(=O)(=O)Nc1ccc2ncc(C(=O)NCc3ccc(Cl)cc3)c(O)c2c1` [Example 29, N-[(4-Chlorophenyl)methyl]-4-hydroxy-6-[(methylsulfonyl)-amino]-3-quinolinecarboxamide], the values for the IC50 on HCMV polymerase, on HSV polymerase and at VZV polymerase were 34100 nM, 70600 nM and 25200 nM, respectively.

For `COc1cc(C#CCO)cc2c(O)c(C(=O)NCc3ccc(Cl)cc3)cnc12` [Example 118, N-(4-Chlorobenzyl)-4-hydroxy-6-(3-hydroxy-1-propynyl)-8-methoxy-3-quinolinecarboxamide], the figures for the IC50 at HCMV polymerase, on HSV polymerase and on VZV polymerase were 670 nM, 660 nM and 200 nM, respectively.

In the case of `CS(=O)(=O)Nc1ccc2c(O)c(C(=O)NCc3ccc(Cl)cc3)cnc2c1` [Example 26, N-[(4-Chlorophenyl)methyl]-4-hydroxy-7-[(methylsulfonyl)-amino]-3-quinolinecarboxamide], the IC50 turned out to be 17000 nM at HCMV polymerase, 25000 nM at HSV polymerase and 14000 nM at VZV polymerase.

Take `CS(=O)(=O)OCCCc1cc(F)c2ncc(C(=O)NCc3ccc(Cl)cc3)c(O)c2c1` [Example 142, 3-(3-([(4-Chlorobenzyl)amino]carbonyl}-8-fluoro-4-hydroxy-6-quinolinyl)propyl methanesulfonate]: the concentration for half-maximal inhibition (IC50) on HCMV polymerase came to 3800 nM; on HSV polymerase it was 2900 nM; on VZV polymerase it was 2100 nM.

Consider `O=C(NCc1ccc(Cl)cc1)c1cnc2ccc(CCCO)cc2c1O` [Example 144, N-(4-Chlorobenzyl)-4-hydroxy-6-(3-hydroxypropyl)-3-quinolinecarboxamide], for which the values for the IC50 at HCMV polymerase, at HSV polymerase and on VZV polymerase were 280 nM, 280 nM and 70 nM, respectively.

As to `CN(C)c1ccc2ncc(C(=O)NCc3ccc(Cl)cc3)c(O)c2c1` [Example 30, N-[(4-Chlorophenyl)methyl]-6-(dimethylamino)-4-hydroxy-3-quinolinecarboxamide], the IC50 on HCMV polymerase stood at 10600 nM; on HSV polymerase, 14300 nM; on VZV polymerase, 7500 nM.

Turning to `O=C(NCc1ccc(Cl)cc1)c1cnc2ccc([N+](=O)[O-])cc2c1O` [Example 13, N-[(4-Chlorophenyl)methyl]-4-hydroxy-6-nitro-3-quinoline-carboxamide], the results for the half-maximal inhibitory concentration (IC50) on HCMV polymerase, at HSV polymerase and at VZV polymerase were below 2300 nM, 3000 nM and below 2300 nM, respectively.

Regarding `CC(C)(O)CCc1cc(F)c2ncc(C(=O)NCc3ccc(Cl)cc3)c(O)c2c1` [Example 106, N-(4-Chlorobenzyl)-8-fluoro-4-hydroxy-6-(3-hydroxy-3-methylbutyl)-3-quinolinecarboxamide], the results for the IC50 at HCMV polymerase, on HSV polymerase and on VZV polymerase were 10300 nM, 16400 nM and 9600 nM, respectively.

In the case of `O=C(NCc1ccc(Cl)cc1)c1cnc2ccc(-c3cccs3)cc2c1O` [Example 178, N-(4-Chlorobenzyl)-4-hydroxy-6-(2-thienyl)-3-quinolinecarboxamide], the concentration for half-maximal inhibition (IC50) turned out to be 150 nM at HCMV polymerase, 800 nM on HSV polymerase and 640 nM at VZV polymerase.

The values are drawn from patent publication US6093732A, “4-hydroxyquinoline-3-carboxamides and hydrazides as antiviral agents” (Pharmacia & Upjohn Company, priority 1998, dated 2000).
